Assay results as given in PMC8398231 (Pharmaceutics, 2021).

Experiments:
PC-3 = conditions: other kit formulation without scavenger and bulking agent; cited from earlier work
Description: Another kit formulation of RM2 has been developed but without a scavenger and a bulking agent for lyophilization. […] Therefore, our innovative formulation provides longer stability at higher temperature and higher uptake in GRP-R-expressing PC-3 cells.

[1] = Stability of radiolabeled kit in vehicle (radiochemical purity over time); format: physicochemical; conditions: final formulation (acetate buffer, PBS, 0.9% NaCl)
Procedure: For process validation, the [^68Ga]Ga-RM2 kits were subjected to full quality control. […] Molar activity was calculated after linear regression of the calibration curve with [^natGa]Ga-RM2 (Life Molecular Imaging). The pH was determined using a pH-meter. Volumetric activity was determined by dividing activity obtained by the final volume. The [^68Ga]Ga-RM2 was also subjected to endotoxin testing (Charles Rivers), sterility testing and radionuclidic purity and filter integrity tests. Results were then compared to the production capacity provided by the module route currently running in our NCT03604757 and NCT03606837 studies.
After optimization, ^68Ga radiolabeling of the RM2 kits was carried out in three consecutive batches, and they all complied with the requirements of the monograph of the European Pharmacopoeia (as described for [^68Ga]Ga-edotreotide) (Figure 4 and Table 1). The evolution of the radiochemical purity over time was also checked.

[2] = Lipophilicity, water-octanol partition/distribution coefficient method; format: physicochemical; conditions: 1-octanol/phosphate buffered saline; shake-flask 1-octanol/PBS pH 7.4 (500 µL each), 3.7 MBq, stirred 5 min at room temperature, centrifuged, gamma counter, decay-corrected; three experiments in triplicate, mean ± SD
Procedure: The lipophilicity of the [^68Ga]Ga-RM2 was assessed by the water-octanol partition/distribution coefficient method. In a centrifuge tube 500 µL of 1-octanol was added to 500 µL of phosphate buffered saline (pH 7.4) containing the radiolabeled peptide (3.7 MBq; ≈10 µL). After equilibrium, the solution was vigorously stirred for 5 min at room temperature and subsequently centrifuged (4000 rpm, 3 min) to yield two immiscible layers. Aliquots of 100 µL were taken from each layer and the radioactivity in the samples was determined by a gamma counter (Gamma Wizard2 Counter 2480; Perkin Elmer, Villebon sur Yvette, France; acquisition time of one minute, energy window centered on the peak of 511 keV). The Log D7.4 was determined by the Log ratio (cpm (counts per minute) organic phase/cpm aqueous phase). The cpm values were decay-corrected. Experiments were performed three times in triplicates.

PC-3 cells = experiment: Cellular efflux of internalized radioactivity from PC-3 cells; format: cell-based
Procedure: For in vitro experiments, PC-3 cells were cultured in DMEM/F12 and seeded in 6-well plates at a density of 10^6 cells per well 18 h before carrying out the experiments and incubated overnight with complete medium.
Three minutes before the end of the incubation time, internalization was stopped by removing medium and washing cells with ice-cold PBS. The membrane-bound fraction was removed by rinsing cells with 2 mL acetate buffer (pH = 5; 20 mM) for 2 min and cells were then rinsed ice-cold PBS. Next, 2 mL of complete medium was then added to each well, and PC-3 cells were incubated at 37 °C for 5, 15, 30 and 45 min. At each time point, efflux was stopped by removing medium and cells were rinsed twice with ice-cold PBS. Finally, the cells were treated with 1M NaOH and the radioactivity was measured using a gamma counter.

GRP-R = molecular target: T1, GRP-R (Homo sapiens, UniProt P30550); experiment: Intracellular calcium mobilization assay in PC-3 cells; format: cell-based; conditions: fluo-8AM, 10^-11 M to 10^-5 M, room temperature, pH 7.4
T1 construct: higher uptake in GRP-R-expressing PC-3 cells; endogenous in cells; host or cells: PC-3 cells
T1 sequence (P30550 whole entry): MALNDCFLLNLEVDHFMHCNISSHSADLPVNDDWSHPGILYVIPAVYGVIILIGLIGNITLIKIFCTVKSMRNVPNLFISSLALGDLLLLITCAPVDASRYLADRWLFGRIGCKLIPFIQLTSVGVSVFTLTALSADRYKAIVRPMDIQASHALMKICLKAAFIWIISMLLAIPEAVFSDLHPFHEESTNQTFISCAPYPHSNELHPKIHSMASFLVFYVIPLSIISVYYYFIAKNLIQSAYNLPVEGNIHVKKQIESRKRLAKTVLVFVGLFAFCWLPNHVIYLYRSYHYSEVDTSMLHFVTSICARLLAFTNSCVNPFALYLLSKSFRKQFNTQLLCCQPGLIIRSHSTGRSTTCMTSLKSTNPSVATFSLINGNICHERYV
Procedure: For calcium imaging assays, PC-3 cells were cultured as previously described. The day before the experimentation, cells were grown on 15 mm Thermanox® glass slides (Thermofischer, Waltham, MA, USA,) in 6-wells plates at the density of 5.10^5 cells in 500 µL culture medium. Glass slides were individually loaded for 30 min in dark into 500 µL loading solution containing 10 µL fluo-8AM, 10 µL pluronic acid, 50 µL probenecid and 430 µL DMEM/F12 medium. […] A 10-min delay was applied to remove extracellular fluo-8AM and to enable fluo-8AM intracellular hydrolysis. Growing concentrations (10^−11 M to 10^−5 M) of [^natGa]Ga-RM2 were added via a rapid perfusion system.

Compound	Specific uptake in PC-3 (% of cell-associated radioactivity) (PC-3) [%]	Stability in vehicle (radiochemical purity over time) [1]	logD [2]	Efflux of the internalized activity (PC-3 cells; 30 min internalization at 37 °C, acid wash, then 5 min at 37 °C in complete medium) [%]	Efflux (%) (PC-3 cells; 45 min post-internalization at 37 °C)	Intracellular calcium mobilization (ΔF/F) (GRP-R)
CC(C)C[C@H](NC(=O)C[C@H](O)[C@H](CC(C)C)NC(=O)[C@H](Cc1c[nH]cn1)NC(=O)CNC(=O)[C@@H](NC(=O)[C@H](C)NC(=O)[C@H](Cc1c[nH]c2ccccc12)NC(=O)[C@H](CCC(N)=O)NC(=O)[C@@H](Cc1ccccc1)NC(=O)CN1CCC(NC(=O)CN2CCN(CC(=O)O)CCN(CC(=O)O)CCN(CC(=O)O)CC2)CC1)C(C)C)C(N)=O [[^68Ga]Ga-RM2, metal not drawn]	5	stable in vehicle up to 3 h	-2.54 ± 0.04	64.3 ± 6.5	70.8 ± 11.1	
bombesin						effectively induced calcium mobilization in a dose-dependent manner
